The experiment deals with 5-hydroxytryptamine receptor 7 (Homo sapiens, UniProt P34969). In words: Displacement of [3H]LSD from human 5-HT7 receptor expressed in HEK cell membranes after 1.5 hrs by microbeta scintillation counting method.

The record followed here is BindingDB's records for doi:10.1021/acs.jmedchem.8b00642 (Korea Institute of Science and Technology, 2018).

Chain of 5-hydroxytryptamine receptor 7 (P34969 whole entry): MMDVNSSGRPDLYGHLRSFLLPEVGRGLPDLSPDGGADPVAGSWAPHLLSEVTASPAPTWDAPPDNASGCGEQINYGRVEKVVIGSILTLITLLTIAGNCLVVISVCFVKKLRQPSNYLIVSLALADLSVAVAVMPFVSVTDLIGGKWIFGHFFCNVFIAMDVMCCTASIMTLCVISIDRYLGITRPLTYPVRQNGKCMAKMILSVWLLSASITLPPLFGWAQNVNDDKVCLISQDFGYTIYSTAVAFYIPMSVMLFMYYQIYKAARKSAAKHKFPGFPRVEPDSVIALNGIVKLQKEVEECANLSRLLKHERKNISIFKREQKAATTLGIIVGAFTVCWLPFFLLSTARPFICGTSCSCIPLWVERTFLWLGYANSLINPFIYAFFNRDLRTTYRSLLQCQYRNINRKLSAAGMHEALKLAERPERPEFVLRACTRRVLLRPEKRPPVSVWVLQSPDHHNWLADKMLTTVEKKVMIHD

Consider `Clc1ccc(-c2n[nH]c3c2CCNCC3)cc1`, for which the affinity corresponds to a Ki of 32 nM.
